In patent publication US12653809B2, “Urea, amide, and substituted heteroaryl compounds for CBL-B inhibition” (Nurix Therapeutics, Inc., priority 2019, dated 2026):
Where two headings read alike, the source gives them in different places.

Target: T1, Cbl-b (truncated variant, UniProt number Q13191) (Homo sapiens, UniProt Q13191)
T1 construct: made in house
Experiment: Cbl-b displacement assay (Cbl-b inhibition assay, fluorophore-labeled probe)
Format: binding
Text: As described in Biological Example 1A, a Cbl-b activity assay (Cbl-b inhibition assay) used to measure the IC50 values for Cbl-b inhibition uses a mixture comprising candidate compound, Cbl-b (truncated, with an Avitag, and biotinylated), a fluorescently-labeled E2 enzyme UbcH5B labelled with ubiquitin conjugated to BODIPY-fluorescein (UbcH5B-Ub), streptavidin-terbium, and assay buffer. In one embodiment, the Cbl-b activity assay (Cbl-b inhibition assay) used to measure IC50 for inhibition of Cbl-b uses the conditions described in Biological Example 1A with 12 nM Cbl-b. […] In another embodiment, the Cbl-b activity assay (Cbl-b inhibition assay) used to measure IC50 for inhibition of Cbl-b uses the conditions described in Biological Example 1B, with candidate compound, 0.125 nM Cbl-b (truncated, with an avitag, and biotinylated), fluorescently labelled inhibitor probe, and assay buffer. Displacement of the inhibitor probe indicates Cbl-b activity.
Candidate compounds were evaluated for their ability to bind and inhibit Cbl-b, an E3 ubiquitin-protein ligase, as evidenced by their ability to displace a fluorophore-labeled probe (Example 168) bound to Cbl-b.
The ability of candidate compounds to displace a known inhibitor and thereby inhibit Cbl-b activity was measured by monitoring the interaction of Cbl-b with a fluorophore-labeled probe in the presence of the candidate compound. A truncated variant of Cbl-b (UniProt number Q13191; SEQ ID NO:1) containing an Avitag at its N-terminus was co-expressed with BirA biotin ligase and purified using a standard protocol (see Dou et al., Nature Structural and Molecular Biology, 8: 982-987, 2013; Avidity LLC).
Fluorescently-labeled inhibitor probe was synthesized and tagged with BODIPY FL (Example 168). Cbl-b displacement assays were performed in a 384-well plate at room temperature in a 10 μL reaction volume by pre-incubating 0.125 nM Cbl-b (final concentration) in an assay buffer containing 20 mM HEPES pH 7.5, 150 mM NaCl, 0.01% Triton X-100, 0.01% BSA, and 0.5 mM TCEP in the presence of a candidate compound in 1% DMSO (final concentration) for one hour. After incubation in the presence of the candidate compound, the plate was incubated for an additional one hour in the presence of an approximate EC40 binding saturation consisting of 150 nM fluorescently-labeled inhibitor probe and 2 nM Streptavidin-Terbium (Cisbio) (final concentrations). Following the one hour incubation, the plates were read for TR-FRET signal at 520/620 nm using an Envision plate reader (Perkin Elmer).
Compounds were ranked into bins A through D as follows for IC50: A indicates <0.1 μM, B indicates 0.1 μM≤IC50<1 μM, C indicates 1 μM≤IC50<5 μM, and D indicates 5 μM≤IC50.

[1] = Biological Example 1B, read-out: IC50 values in the Cbl-b inhibition assay of Biological Example 1B
[2] = displacement assay, 0.125 nM Cbl-b, 150 nM fluorescently-labeled inhibitor probe, read-out: Cbl-b activity IC50

T1 sequence (Q13191 36-427): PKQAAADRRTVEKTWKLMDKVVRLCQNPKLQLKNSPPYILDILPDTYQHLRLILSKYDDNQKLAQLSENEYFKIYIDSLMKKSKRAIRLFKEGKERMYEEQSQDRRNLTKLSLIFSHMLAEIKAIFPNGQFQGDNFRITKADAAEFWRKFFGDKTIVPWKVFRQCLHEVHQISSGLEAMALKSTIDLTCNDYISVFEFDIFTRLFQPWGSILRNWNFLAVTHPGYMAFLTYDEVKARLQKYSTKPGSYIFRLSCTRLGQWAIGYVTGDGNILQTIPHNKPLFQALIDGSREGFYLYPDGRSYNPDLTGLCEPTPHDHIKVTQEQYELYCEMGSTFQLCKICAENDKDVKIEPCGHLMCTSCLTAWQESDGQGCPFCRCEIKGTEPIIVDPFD

IC50 [1]	IC50 [2]	SMILES
< 100 nM	< 100 nM	Cn1cnnc1CC1(c2cccc(-c3n[nH]c4c(CN5CC[C@H](F)C5)cc(C(F)(F)F)nc34)c2)COC1 [Example 114, (S)-7-((3-fluoropyrrolidin-1-yl)methyl)-3-(3-(3-((4-methyl-4H-1,2,4-triazol-3-yl)methyl)oxetan-3-yl)phenyl)-5-(trifluoromethyl)-1H-pyrazolo[4,3-b]pyridine]
< 100 nM	< 100 nM	Cn1cnnc1[C@@H](c1cccc(-c2n[nH]c3c(CN4CC[C@H](F)C4)cc(C(F)(F)F)nc23)c1)C1CCC1 [Example 115, 3-(3-((R)-cyclobutyl(4-methyl-4H-1,2,4-triazol-3-yl)methyl)phenyl)-7-(((S)-3-fluoropyrrolidin-1-yl)methyl)-5-(trifluoromethyl)-1H-pyrazolo[4,3-b]pyridine]
